Laboratory results published in patent US11098053B2, “Enhanced osteogenic activity of daidzein analogs on human mesenchymal stem cells” (THE ADMINISTRATORS OF THE TULANE EDUCATIONAL FUND, priority 2013, dated 2021).
Entries after “also recorded” stand apart in the source; their conditions may differ.

What was measured:
[1] = test system: Human bone marrow derived mesenchymal stem cells (MSCs); test: Osteogenic differentiation of MSCs (Alizarin Red calcium deposition); conditions: for osteogenic activity (structure-activity summary, in words): donor MSCs; for osteogenic activity (structure-activity summary, in words) / cytotoxicity to donor MSCs / osteogenesis averaged over all three donors, relative to vehicle treated MSCs: 1 μM; for cytotoxicity to donor MSCs: MSCs from three donors (toxic in Donor 2 and Donor 3); for osteogenic differentiation of MSCs, fold relative to vehicle treated MSCs: daidzein 1 μM, genistein 1 μM, Alizarin Red
ASCs = test: Osteogenic differentiation of ASCs (alizarin red); conditions: 14 days; for cytotoxicity of ASCs by bright field microscopy, compared to vehicle / osteogenic differentiation (calcium deposition), fold relative to vehicle-treated ASCs: estrogen 10 nM, others 1 μM; for osteogenic differentiation (calcium deposition), fold relative to vehicle-treated ASCs: n=6 donors
BMSCs = test: Osteogenic differentiation of BMSCs (alizarin red); conditions: 14 days; for cytotoxicity of BMSCs by bright field microscopy, compared to vehicle / osteogenic differentiation (calcium deposition), fold relative to vehicle-treated BMSCs: estrogen 10 nM, others 1 μM; for osteogenic differentiation (calcium deposition), fold relative to vehicle-treated BMSCs: n=6 donors
[2] = screen, MSCs from one donor (Donor 1), analogs and daidzein 1 μM, estrogen 10 nM, 14 days
[3] = 1 μM + 100 nM fulvestrant, FIG. 12
[4] = Donor 1, estrogen 10 nM, 14 days
[5] = Donor 2, estrogen 10 nM, 14 days
[6] = Donor 3, estrogen 10 nM, 14 days

## COc1ccc2c(=O)c(-c3ccc(O)cc3)coc2c1 [2a, 3-(4-Hydroxyphenyl)-7-methoxy-4H-chromen-4-one]
[1]; 14 days
  osteogenic activity (structure-activity summary, in words): modest osteogenic activity

## CCOc1ccc2c(=O)c(-c3ccc(O)cc3)coc2c1 [2b, 7-Ethoxy-3-(4-hydroxyphenyl)-4H-chromen-4-one]
[1]; 14 days
  osteogenic activity (structure-activity summary, in words): modest osteogenic activity

## CCCOc1ccc2c(=O)c(-c3ccc(O)cc3)coc2c1 [2d, 3-(4-Hydroxyphenyl)-7-propoxy-4H-chromen-4-one]
[1]; 14 days
  cytotoxicity to donor MSCs: cytotoxic; also recorded: toxicity to two donor cells
  osteogenic activity (structure-activity summary, in words): modest osteogenesis

## CCCCOc1ccc2c(=O)c(-c3ccc(O)cc3)coc2c1 [2e, 7-Butoxy-3-(4-hydroxyphenyl)-4H-chromen-4-one]
[1]; 14 days
  osteogenic activity (structure-activity summary, in words): marked enhancement; also recorded: over two-fold increase
  osteogenesis averaged over all three donors, relative to vehicle treated MSCs: 2.3±0.33
[1]; [2]
  induction category of osteogenic differentiation (no, low, high induction): high inducers

## CC(C)COc1ccc2c(=O)c(-c3ccc(O)cc3)coc2c1 [2f, 3-(4-Hydroxyphenyl)-7-isobutoxy-4H-chromen-4-one]
[1]; day 7
  differentiation at day 7: enhanced differentiation at day 7
[1]; donor 3, 1 nM-1 μM, 14 days
  IC50 (analog concentration required to achieve 1.5 fold relative bone differentiation): 1.38 μM
[1]; 14 days
  osteogenic activity (structure-activity summary, in words): marked enhancement
  osteogenesis averaged over all three donors, relative to vehicle treated MSCs: 1.8±0.48
[1]; read-out: IC50 averaged among the three donors, mean of three donors, 14 days
  IC50: 504 nM
[1]; [2]
  induction category of osteogenic differentiation (no, low, high induction): high inducers

## CCCCCCOc1ccc2c(=O)c(-c3ccc(O)cc3)coc2c1 [2h, 7-Hexyloxy-3-(4-hydroxyphenyl)-4H-chromen-4-one]
[1]; 14 days
  osteogenic activity (structure-activity summary, in words): marked enhancement
  osteogenesis averaged over all three donors, relative to vehicle treated MSCs: 2.0±0.48
[1]; [2]
  induction category of osteogenic differentiation (no, low, high induction): high inducers

## O=c1c(-c2ccc(O)cc2)coc2cc(OCCN3CCCCC3)ccc12 [2i, 3-(4-Hydroxyphenyl)-7-(2-(piperidin-1-yl)ethoxy)-4H-chromen-4-one]
[1]; 14 days
  cytotoxicity to donor MSCs: cytotoxic; also recorded: potent toxicity to two donors
[1]; [2]
  induction category of osteogenic differentiation (no, low, high induction): high inducers

## O=c1c(-c2ccc(O)cc2)coc2cc(OCCN3CCCC3)ccc12 [2j, 3-(4-Hydroxyphenyl)-7-(2-(pyrrolidin-1-yl)ethoxy)-4H-chromen-4-one]
[1]; 14 days
  osteogenic activity (structure-activity summary, in words): no osteogenic effect

## CN(C)CCOc1ccc2c(=O)c(-c3ccc(O)cc3)coc2c1 [2k, 7-(2-(Dimethylamino)ethoxy)-3-(4-hydroxyphenyl)-4H-chromen-4-one]
[1]; 14 days
  osteogenic activity (structure-activity summary, in words): no osteogenic effect

## COc1ccc(NC(=O)c2ccc(OC)cc2OC)cc1 [12a, 2,4-Dimethoxy-N-(4-methoxyphenyl)benzamide]
[1]; 14 days
  osteogenic activity (structure-activity summary, in words): strong osteogenic activity
[1]; [2]
  induction category of osteogenic differentiation (no, low, high induction): high inducers

## COc1ccc(C(=O)Nc2ccc(OCC(C)C)cc2)c(OC)c1 [12b, N-(4-Isobutoxyphenyl)-2,4-dimethoxybenzamide]
[1]; 14 days
  osteogenic activity (structure-activity summary, in words): not active at all

## CC1(C)C=Cc2c(ccc3c(=O)c(-c4ccc(O)cc4)coc23)O1 [compound 3, 3-(4-Hydroxyphenyl)-8,8-dimethyl-8H-pyrano[2,3f]-chromen-4-one]
other
  melting point: 262 to 264 °C
[1]; 14 days
  osteogenic activity (structure-activity summary, in words): did not exhibit any osteogenic activity

## CC1(C)CCc2c(ccc3c2OCC(c2ccc(O)cc2)C3=O)O1 (stereo not drawn) [compound 4, 3-(4-Hydroxyphenyl)-8,8-dimethyl-2,3,9,10-tetrahydropyrano[2,3-f]chromen-4(8H)-one]
other
  melting point: 176 to 180 °C
[1]; 14 days
  osteogenic activity (structure-activity summary, in words): modest potential

## CC1(C)CCc2c(ccc3c2OCC(c2ccc(O)cc2)C3)O1 (stereo not drawn) [compound 5, 4-(8,8-Dimethyl-2,3,4,8,9,10-hexahydropyrano[2,3-f]chromen-3-yl)phenol]
[1]; 14 days
  osteogenic activity (structure-activity summary, in words): no discernible osteogenic activity

## C#CCOc1ccc2c(=O)c(-c3ccc(O)cc3)coc2c1 [compound 6, 3-(4-Hydroxyphenyl)-7-(prop-2-yn-1-yloxy)-4H-chromen-4-one]
other
  melting point: 228 to 230 °C
[1]; 14 days
  osteogenic activity (structure-activity summary, in words): only modest osteogenic potential

## Cc1cc2c(ccc3c(=O)c(-c4ccc(O)cc4)coc32)o1 [compound 7, 3-(4-hydroxyphenyl)-8-methyl-4H-furo[2,3-h]chromen-4-one]
[1]; 14 days
  osteogenic activity (structure-activity summary, in words): modest potential

## CC1(C)C=Cc2c(ccc3c(=O)c(-c4ccc(B5OC(C)(C)C(C)(C)O5)cc4)coc23)O1 [compound 8, 8,8-dimethyl-3-(4-(4,4,5,5-tetramethyl-1,3,2-dioxaborolan-2-yl)phenyl)pyrano[2,3-f]chromen-4(8H)-one]
other
  melting point: 228 to 230 °C

## CCCCOc1ccc2c(c1)OCC(c1ccc(O)cc1)C2 (stereo not drawn) [compound 9, 4-(7-Butoxychroman-3-yl)phenol]
[1]; 14 days
  osteogenic activity (structure-activity summary, in words): no osteogenic activity

## CC1(C)C=Cc2cc3c(cc2O1)OCC(c1ccc(O)cc1)C3 (stereo not drawn) [compound 10, 4-(8,8-Dimethyl-2,3,4,8-tetrahydropyrano[3,2-g]chromen-3-yl)phenol]
[1]; 14 days
  osteogenesis averaged over all three donors, relative to vehicle treated MSCs: 2.2±0.19

## COc1ccc(C(=O)Nc2ccc(O)cc2)c(OC)c1 [compound 11, N-(4-Hydroxyphenyl)-2,4-dimethoxybenzamide]
[1]; 14 days
  osteogenic activity (structure-activity summary, in words): not active at all

## O=c1c(-c2ccc(O)cc2)coc2cc(O)ccc12 [daidzein, Daidzein]
ASCs; [3]
  osteogenic potential of ASCs relative to vehicle, with fulvestrant: 1.0 fold
ASCs; 1 μM, FIG. 12
  osteogenic potential of ASCs relative to vehicle, inhibitor study, without fulvestrant: 1.5 fold
ASCs
  cytotoxicity of ASCs by bright field microscopy, compared to vehicle: did not demonstrate enhanced cytotoxicity
  osteogenic differentiation (calcium deposition), fold relative to vehicle-treated ASCs: 1.7 fold
BMSCs; [3]
  osteogenic potential of BMSCs relative to vehicle, with fulvestrant: 1.0 fold
BMSCs; 1 μM, FIG. 12
  osteogenic potential of BMSCs relative to vehicle, inhibitor study, without fulvestrant: 1.7 fold
BMSCs
  cytotoxicity of BMSCs by bright field microscopy, compared to vehicle: did not demonstrate enhanced cytotoxicity
  osteogenic differentiation (calcium deposition), fold relative to vehicle-treated BMSCs: 1.5 fold
[1]; [4]
  osteogenic differentiation of MSCs, fold relative to vehicle treated MSCs: 1.7±0.19 fold
[1]; [5]
  osteogenic differentiation of MSCs, fold relative to vehicle treated MSCs: 1.7±0.01 fold
[1]; [6]
  osteogenic differentiation of MSCs, fold relative to vehicle treated MSCs: 1.6±0.15 fold
[1]; [2]
  induction category of osteogenic differentiation (no, low, high induction): low inducers
  osteogenic differentiation relative to vehicle treated MSCs in ODM: 1.7±0.3 fold

## O=c1c(-c2ccc(O)cc2)coc2cc(O)cc(O)c12 [genistein, reference compound]
ASCs; 6 donors, 1 μM
  ASC donors that did not respond to treatment: 3 of the 6
ASCs
  cytotoxicity of ASCs by bright field microscopy, compared to vehicle: did not demonstrate enhanced cytotoxicity
  osteogenic differentiation (calcium deposition), fold relative to vehicle-treated ASCs: 1.4 fold
BMSCs; 6 donors, 1 μM
  BMSC donors that did not respond to treatment: 2 of the 6
BMSCs
  cytotoxicity of BMSCs by bright field microscopy, compared to vehicle: did not demonstrate enhanced cytotoxicity
  osteogenic differentiation (calcium deposition), fold relative to vehicle-treated BMSCs: 1.4 fold
[1]; [4]
  osteogenic differentiation of MSCs, fold relative to vehicle treated MSCs: 1.6±0.19 fold
[1]; [5]
  osteogenic differentiation of MSCs, fold relative to vehicle treated MSCs: 1.7±0.02 fold
[1]; [6]
  osteogenic differentiation of MSCs, fold relative to vehicle treated MSCs: 1.0±0.15 fold
